Results as given in PMC4361037 (Annals of neurology, 2014).
pIC50: −log10 of the molar value. Several values for one entry are separate records, joined by “and”; a condition that tells them apart may be missing. Identical values can stand only once. Like-named read-outs stand apart in the source and are kept apart here.

What was measured:
[1] = test system: GAA repeat RNA–containing foci
[2] = human, in vivo, po
clinical = details: human, in vivo, po; for half-life: t½ (elimination half-life)
FXN mRNA = assay: qRT-PCR analysis of FXN mRNA expression in FRDA iPSC-derived neurons; type: cell-based, human; details: 10μM, 24-hour treatment
HDAC3 versus HDAC1/2 = details: cited from earlier work
FXN mRNA and protein = details: cited from earlier work; for upregulation of FXN mRNA and protein: patient PBMCs
[3] = target: human ether-a-go-go related gene (hERG) (Homo sapiens, UniProt Q12809); assay: Automated patch clamp assay; type: cell-based
FXN transcription = details: doses up to 8g per day; cited from earlier work
[4] = test system: voltage-gated Na+ channel; type: cell-based, human

Sequence of human ether-a-go-go related gene (hERG) (Q12809 whole entry): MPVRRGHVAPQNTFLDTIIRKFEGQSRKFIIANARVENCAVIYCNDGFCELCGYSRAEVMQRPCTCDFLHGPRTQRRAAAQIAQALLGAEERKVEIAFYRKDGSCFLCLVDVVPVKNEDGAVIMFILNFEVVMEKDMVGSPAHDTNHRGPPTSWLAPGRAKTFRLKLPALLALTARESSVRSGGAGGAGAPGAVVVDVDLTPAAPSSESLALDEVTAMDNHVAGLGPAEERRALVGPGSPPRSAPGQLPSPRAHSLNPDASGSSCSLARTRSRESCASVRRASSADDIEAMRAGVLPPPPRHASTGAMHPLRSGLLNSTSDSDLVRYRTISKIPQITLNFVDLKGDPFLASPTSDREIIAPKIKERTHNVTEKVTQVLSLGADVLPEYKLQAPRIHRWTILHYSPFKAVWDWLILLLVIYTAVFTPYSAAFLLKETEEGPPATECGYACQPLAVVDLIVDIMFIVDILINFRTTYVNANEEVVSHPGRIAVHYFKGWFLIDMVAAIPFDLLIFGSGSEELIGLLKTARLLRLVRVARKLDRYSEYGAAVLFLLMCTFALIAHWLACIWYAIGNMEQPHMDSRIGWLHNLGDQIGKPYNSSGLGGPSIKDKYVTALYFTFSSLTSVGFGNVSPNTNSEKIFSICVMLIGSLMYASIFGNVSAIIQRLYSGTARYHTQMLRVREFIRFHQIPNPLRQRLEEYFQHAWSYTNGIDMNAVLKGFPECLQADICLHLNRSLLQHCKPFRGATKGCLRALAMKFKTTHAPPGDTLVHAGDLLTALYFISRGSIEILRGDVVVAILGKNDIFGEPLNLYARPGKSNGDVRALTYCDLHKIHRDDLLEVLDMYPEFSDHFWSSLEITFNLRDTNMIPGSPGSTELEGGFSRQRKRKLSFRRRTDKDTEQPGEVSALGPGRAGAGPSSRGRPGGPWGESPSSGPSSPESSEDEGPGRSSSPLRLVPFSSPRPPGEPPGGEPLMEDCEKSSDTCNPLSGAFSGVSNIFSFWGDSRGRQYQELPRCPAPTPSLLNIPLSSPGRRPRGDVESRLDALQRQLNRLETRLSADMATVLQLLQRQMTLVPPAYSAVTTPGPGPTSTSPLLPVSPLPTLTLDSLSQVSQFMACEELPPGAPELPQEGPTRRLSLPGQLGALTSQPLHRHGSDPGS

Cc1ccc(C(=O)NCCCCCC(=O)Nc2ccccc2N)cc1 [HDACi 109, N-[6-(2-aminophenylamino) −6-oxohexyl]-4-methylbenzamide]
GAA•TTC repeat instability (GAA•TTC repeats): no effect on repeat instability | RNA nuclear foci [1]: lack of RNA nuclear foci | CL/F [2]: 6.39±1.71 (5) l/h | Cmax (time of) [2]: ≤ 2 h | CL/F ([2]; 30 mg): 3.91±0.59 (2) l/h | CL/F ([2]; 60 mg): 6.43±1.51 (3) l/h | CL/F ([2]; 120 mg): 5.80±1.46 (5) l/h | CL/F ([2]; 180 mg): 5.24±0.89 (5) l/h | AUC(0-inf) (clinical): 39600 ng·h/mL | AUC(0-t) (clinical): 39300 ng·h/mL | CL/F (clinical): 1.98 mL/min/kg | Cmax (clinical): 7150 ng/mL | Tmax (clinical): 0.5 h | Vd/F (clinical): 75.5 L and 1.41 L/kg | k el (clinical): 2.34e-05 s⁻¹ | AUC(0-inf) (clinical; 30 mg): 7760 ng·h/mL | AUC(0-t) (clinical; 30 mg): 7700 ng·h/mL | CL/F (clinical; 30 mg): 1.02 mL/min/kg | Cmax (clinical; 30 mg): 1980 ng/mL | Tmax (clinical; 30 mg): 0.67 h | Vd/F (clinical; 30 mg): 45.1 L and 0.69 L/kg | k el (clinical; 30 mg): 2.49e-05 s⁻¹ | half-life (clinical; 30 mg): 8.2 h | AUC(0-inf) (clinical; 60 mg): 9720 ng·h/mL | AUC(0-t) (clinical; 60 mg): 9630 ng·h/mL | CL/F (clinical; 60 mg): 1.45 mL/min/kg | Cmax (clinical; 60 mg): 2560 ng/mL | Tmax (clinical; 60 mg): 0.67 h | Vd/F (clinical; 60 mg): 79 L and 1.04 L/kg | k el (clinical; 60 mg): 2.37e-05 s⁻¹ | half-life (clinical; 60 mg): 8.43 h | AUC(0-inf) (clinical; 120 mg): 22000 ng·h/mL | AUC(0-t) (clinical; 120 mg): 21700 ng·h/mL | CL/F (clinical; 120 mg): 1.42 mL/min/kg | Cmax (clinical; 120 mg): 6470 ng/mL | Tmax (clinical; 120 mg): 1 h | Vd/F (clinical; 120 mg): 89.7 L and 1.32 L/kg | k el (clinical; 120 mg): 2.05e-05 s⁻¹ | half-life (clinical; 120 mg): 10.1 h | AUC(0-inf) (clinical; 180 mg): 35100 ng·h/mL | AUC(0-t) (clinical; 180 mg): 34900 ng·h/mL | CL/F (clinical; 180 mg): 1.65 mL/min/kg | Cmax (clinical; 180 mg): 10900 ng/mL | Tmax (clinical; 180 mg): 0.67 h | Vd/F (clinical; 180 mg): 52.8 L and 1 L/kg | k el (clinical; 180 mg): 2.82e-05 s⁻¹ | half-life (clinical; 180 mg): 7.07 h | half-life (clinical): 8.56 h

Nc1ccc(-c2cccs2)cc1NC(=O)CCCCCCNC(=O)c1cccnc1 [HDACi 233, N-[2-amino-5-(2-thienyl)phenyl]-7-nicotinoylamino-heptanamide]
FXN gene expression induction compared with HDACi 109 (FXN mRNA): Neither of these latter compounds induced FXN gene expression to the extent observed with HDACi 109

Nc1cc(F)ccc1NC(=O)/C=C/c1cnn(CC=Cc2ccccc2)c1 [HDACi 966, [E]-N-[2-amino-4-fluorophenyl]-3-[1-cinnamyl-1H-pyrazol-4-yl]acrylamide]
FXN gene expression induction compared with HDACi 109 (FXN mRNA): Neither of these latter compounds induced FXN gene expression to the extent observed with HDACi 109 | selectivity for HDAC3 over HDAC1/2 (HDAC3 versus HDAC1/2): ~ 30 fold

Nc1ccc(-c2ccccc2)cc1NC(=O)CCCCCC(=O)Nc1ccccc1 [N[1]-[4-aminobiphenyl-3-yl]-N[7]-phenylheptanediamide]
FXN upregulation (FXN mRNA and protein; patient lymphocytes): inactive

O=C(CCCCCCC(=O)Nc1ccccc1)NO [SAHA, suberoylanilide hydroxamic acid]
upregulation of FXN mRNA and protein (FXN mRNA and protein): fail to elicit this effect

c1ccc2[nH]cnc2c1 [benzimidazole]
pIC50 [3]: 6.04

NC(=O)c1cccnc1 [nicotinamide]
restoring FXN transcription in peripheral lymphocytes from blood of orally dosed patients (FXN transcription): effective

NC1=N[C@H](O)[C@H]2[C@H]3O[C@]4(O)O[C@@H]([C@@H](O)[C@@]2(N1)[C@@H]4O)[C@]3(O)CO [tetrodotoxin]
action potential generation [4]: reversibly blocked AP generation

Cc1ccc(S(=O)(=O)O)cc1 [toluene sulfonic acid]
upregulation of FXN mRNA and protein (FXN mRNA and protein): fail to elicit this effect
